Test results taken from ChEMBL document CHEMBL1139986, “Synthesis and biodistribution of 8-iodo-11-(4-methylpiperazino)-5H-dibenzo[b,e][1,4]-diazepine: Iozapine” (Bioorg Med Chem Lett, 2007).

Key:
Type in all cases: ADME, organism-based
Spleen [1] = test: Biodistribution in BALB/c mouse spleen at 7 to 8 KBq, iv after 120 mins; settings: in vivo, 2 h
Pancreas [2] = test: Biodistribution in BALB/c mouse pancreas at 7 to 8 KBq, iv after 5 mins; settings: in vivo
Pancreas [3] = test: Biodistribution in BALB/c mouse pancreas at 7 to 8 KBq, iv after 15 mins; settings: in vivo, 0.25 h
Striatum = test: Biodistribution in BALB/c mouse striatum at 7 to 8 KBq, iv after 5 mins; settings: in vivo
Blood [4] = test: Biodistribution in BALB/c mouse blood at 7 to 8 KBq, iv after 5 mins; settings: in vivo
Blood [5] = test: Biodistribution in BALB/c mouse blood at 7 to 8 KBq, iv after 15 mins; settings: in vivo, 0.25 h
Blood [6] = test: Biodistribution in BALB/c mouse blood at 7 to 8 KBq, iv after 60 mins; settings: in vivo, 1 h
Blood [7] = test: Biodistribution in BALB/c mouse blood at 7 to 8 KBq, iv after 120 mins; settings: in vivo, 2 h
Spleen [8] = test: Biodistribution in BALB/c mouse spleen at 7 to 8 KBq, iv after 5 mins; settings: in vivo
Spleen [9] = test: Biodistribution in BALB/c mouse spleen at 7 to 8 KBq, iv after 15 mins; settings: in vivo, 0.25 h
Spleen [10] = test: Biodistribution in BALB/c mouse spleen at 7 to 8 KBq, iv after 60 mins; settings: in vivo, 1 h
Pancreas [11] = test: Biodistribution in BALB/c mouse pancreas at 7 to 8 KBq, iv after 60 mins; settings: in vivo, 1 h
Pancreas [12] = test: Biodistribution in BALB/c mouse pancreas at 7 to 8 KBq, iv after 120 mins; settings: in vivo, 2 h
Stomach [13] = test: Biodistribution in BALB/c mouse stomach at 7 to 8 KBq, iv after 5 mins; settings: in vivo
Stomach [14] = test: Biodistribution in BALB/c mouse stomach at 7 to 8 KBq, iv after 15 mins; settings: in vivo, 0.25 h
Stomach [15] = test: Biodistribution in BALB/c mouse stomach at 7 to 8 KBq, iv after 60 mins; settings: in vivo, 1 h
Stomach [16] = test: Biodistribution in BALB/c mouse stomach at 7 to 8 KBq, iv after 120 mins; settings: in vivo, 2 h
Intestine [17] = test: Biodistribution in BALB/c mouse intestine at 7 to 8 KBq, iv after 5 mins; settings: in vivo
Intestine [18] = test: Biodistribution in BALB/c mouse intestine at 7 to 8 KBq, iv after 15 mins; settings: in vivo, 0.25 h
Intestine [19] = test: Biodistribution in BALB/c mouse intestine at 7 to 8 KBq, iv after 60 mins; settings: in vivo, 1 h
Intestine [20] = test: Biodistribution in BALB/c mouse intestine at 7 to 8 KBq, iv after 120 mins; settings: in vivo, 2 h
Liver [21] = test: Biodistribution in BALB/c mouse liver at 7 to 8 KBq, iv after 5 mins; settings: in vivo
Liver [22] = test: Biodistribution in BALB/c mouse liver at 7 to 8 KBq, iv after 15 mins; settings: in vivo, 0.25 h
Liver [23] = test: Biodistribution in BALB/c mouse liver at 7 to 8 KBq, iv after 60 mins; settings: in vivo, 1 h
Liver [24] = test: Biodistribution in BALB/c mouse liver at 7 to 8 KBq, iv after 120 mins; settings: in vivo, 2 h
Kidney [25] = test: Biodistribution in BALB/c mouse kidney at 7 to 8 KBq, iv after 5 mins; settings: in vivo
Kidney [26] = test: Biodistribution in BALB/c mouse kidney at 7 to 8 KBq, iv after 15 mins; settings: in vivo, 0.25 h
Kidney [27] = test: Biodistribution in BALB/c mouse kidney at 7 to 8 KBq, iv after 60 mins; settings: in vivo, 1 h
Kidney [28] = test: Biodistribution in BALB/c mouse kidney at 7 to 8 KBq, iv after 120 mins; settings: in vivo, 2 h
Lung [29] = test: Biodistribution in BALB/c mouse lung at 7 to 8 KBq, iv after 5 mins; settings: in vivo
Lung [30] = test: Biodistribution in BALB/c mouse lung at 7 to 8 KBq, iv after 15 mins; settings: in vivo, 0.25 h
Lung [31] = test: Biodistribution in BALB/c mouse lung at 7 to 8 KBq, iv after 60 mins; settings: in vivo, 1 h
Lung [32] = test: Biodistribution in BALB/c mouse lung at 7 to 8 KBq, iv after 120 mins; settings: in vivo, 2 h
Heart [33] = test: Biodistribution in BALB/c mouse heart at 7 to 8 KBq, iv after 5 mins; settings: in vivo
Heart [34] = test: Biodistribution in BALB/c mouse heart at 7 to 8 KBq, iv after 15 mins; settings: in vivo, 0.25 h
Heart [35] = test: Biodistribution in BALB/c mouse heart at 7 to 8 KBq, iv after 60 mins; settings: in vivo, 1 h
Heart [36] = test: Biodistribution in BALB/c mouse heart at 7 to 8 KBq, iv after 120 mins; settings: in vivo, 2 h
Thyroid gland = test: Biodistribution in BALB/c mouse thyroid at 7 to 8 KBq, iv after 5 mins; settings: in vivo

With CN1CCN(C2=Nc3cc([125I])ccc3Nc3ccccc32)CC1 [[125I]I-OZAPINE] the Drug uptake (Spleen [1]) was 0.04 %ID, the Drug uptake (Pancreas [2]) was 1.41 %ID and the Drug uptake (Pancreas [3]) was 1.02 %ID. The Drug uptake (Striatum) was 7.28 %ID, the Drug uptake (Blood [4]) was 4.17 %ID and the Drug uptake (Blood [5]) was 3.31 %ID. The Drug uptake (Blood [6]) was 3.49 %ID, the Drug uptake (Blood [7]) was 1.77 %ID and the Drug uptake (Spleen [8]) was 0.37 %ID. The Drug uptake (Spleen [9]) was 0.31 %ID, the Drug uptake (Spleen [10]) was 0.13 %ID and the Drug uptake (Pancreas [11]) was 0.34 %ID. For the same compound, the Drug uptake (Pancreas [12]) was 0.16 %ID, the Drug uptake (Stomach [13]) was 1.77 %ID and the Drug uptake (Stomach [14]) was 3.56 %ID. The Drug uptake (Stomach [15]) was 7.35 %ID, the Drug uptake (Stomach [16]) was 4.61 %ID and the Drug uptake (Intestine [17]) was 9.16 %ID. The Drug uptake (Intestine [18]) was 17.73 %ID, the Drug uptake (Intestine [19]) was 35.19 %ID and the Drug uptake (Intestine [20]) was 34.13 %ID. The Drug uptake (Liver [21]) was 11.12 %ID, the Drug uptake (Liver [22]) was 10.38 %ID and the Drug uptake (Liver [23]) was 12.03 %ID. For the same compound, the Drug uptake (Liver [24]) was 9.8 %ID, the Drug uptake (Kidney [25]) was 5.42 %ID and the Drug uptake (Kidney [26]) was 4.41 %ID. For the same compound, the Drug uptake (Kidney [27]) was 2.15 %ID, the Drug uptake (Kidney [28]) was 1.19 %ID and the Drug uptake (Lung [29]) was 4.01 %ID. For the same compound, the Drug uptake (Lung [30]) was 1.6 %ID, the Drug uptake (Lung [31]) was 0.5 %ID and the Drug uptake (Lung [32]) was 0.17 %ID. It also gave a Drug uptake (Heart [33]) of 0.6 %ID, a Drug uptake (Heart [34]) of 0.28 %ID and a Drug uptake (Heart [35]) of 0.13 %ID. The Drug uptake (Heart [36]) was 0.05 %ID and the Drug uptake (Thyroid gland) was 0 %ID.
